Test results as given in US9365574B2, “Soluble guanylate cyclase activators” (Merck Sharp & Dohme Corp., priority 2010, dated 2016).

test system: Spontaneously hypertensive rats (SHR); test: Acute Efficacy in Spontaneously Hypertensive Rats (SHR), telemetry blood pressure; format: in vivo, rat; settings: dose 0.3 mpk
In short: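 Male SHR with aortic telemetry catheters, 14-day recovery, conscious and freely moving; single oral gavage in 10% transcutol/20% Cremophor/70% water. BP sampled 30 s every 10 min, hourly averages minus prior-day vehicle baseline; value is maximum peak SBP decrease at stated mg/kg PO dose.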

Structure (SMILES)	Maximum SBP reduction
CC1(c2nncs2)C(=O)Nc2nc(-c3nn(CCC(F)(F)C(F)(F)F)c4ncccc34)nc(N)c21 (stereo not shown) [Example 168, 4-Amino-5-Methyl-2-[1-(3,3,4,4,4-Pentafluorobutyl)-1H-Pyrazolo[3,4-B]Pyridin-3-yl]-5-(1,3,4-Thiadiazol-2-yl)-5,7-Dihydro-6H-Pyrrolo[2,3-D]Pyrimidin-6-One]	19 ± 9 mmHg
CC1(C(=O)NC2CC2)C(=O)Nc2nc(-c3nn(CCC(F)(F)F)c4ncccc34)nc(N)c21 (stereo not shown) [Example 181, 4-Amino-N-Cyclopropyl-5-Methyl-6-Oxo-2-[1-(3,3,3-Trifluoropropyl)-1H-Pyrazolo[3,4-B]Pyridin-3-yl]-6,7-Dihydro-5H-Pyrrolo[2,3-D]Pyrimidine-5-Carboxamide]	49 ± 2 mmHg

same assay, conditions: dose 1.0 mpk

Structure (SMILES)	Maximum SBP reduction
CC1(c2ncccn2)C(=O)Nc2nc(-c3nn(CCC(F)(F)C(F)(F)F)c4ncccc34)nc(N)c21 (single isomer, unassigned) [Example 170, 4-Amino-5-Methyl-2-[1-(3,3,4,4,4-Pentafluorobutyl)-1H-Pyrazolo[3,4-B]Pyridin-3-yl]-5-Pyrimidin-2-yl-5,7-Dihydro-6H-Pyrrolo[2,3-D]Pyrimidin-6-One]	65 ± 13 mmHg

same assay, conditions: single oral dose 0.3 mpk P.O.

Structure (SMILES)	Maximum peak decrease of systolic blood pressure (SBP) in SHR, Category
Nc1nc(-c2nn(CCC(F)(F)C(F)(F)F)c3ncccc23)nc2c1C(C(=O)NC1CC1)(C1CC1)C(=O)N2 (stereo not shown) [Example 242, 4-amino-N,5-dicyclopropyl-6-oxo-2-[1-(3,3,4,4,4-pentafluorobutyl)-1H-pyrazolo(3,4-b]pyridin-3-yl]-6,7-dihydro-5H-pyrrolo[2,3-d]pyrimidine-5-carboxamide]	B (Category B=SBP in SHRs 25-40 mmHg)
CC1(C(=O)NC2CC2)C(=O)Nc2nc(-c3nn(CCC(F)(F)C(F)(F)F)c4nc(C5CC5)ccc34)nc(N)c21 (stereo not shown) [Example 223, 4-amino-N-cyclopropyl-2-[6-cyclopropyl-1-(3,3,4,4,4-pentafluorobutyl)-1H-pyrazolo[3,4-b]pyridin-3-yl]-5-methyl-6-oxo-6,7-dihydro-5H-pyrrolo[2,3-d]pyrimidine-5-carboxamide]	B (Category B=SBP in SHRs 25-40 mmHg)
CC1(c2nnco2)C(=O)Nc2nc(-c3nn(CCC(F)(F)C(F)(F)F)c4ncccc34)nc(N)c21 (stereo not shown) [Example 204, 4-amino-5-methyl-5-(1,3,4-oxadiazol-2-yl)-2-[1-(3,3,4,4,4-pentafluorobutyl)-1H-pyrazolo[3,4-b]pyridin-3-yl]-5,7-dihydro-6H-pyrrolo[2,3-d]pyrimidin-6-one]	B (Category B=SBP in SHRs 25-40 mmHg)
CC1(C(N)=O)C(=O)Nc2nc(-c3nn(CCC(F)(F)C(F)(F)F)c4ncccc34)nc(N)c21 (stereo not shown) [Example 161, 4-Amino-5-Methyl-6-Oxo-2-[1-(3,3,4,4,4-Pentafluorobutyl)-1H-Pyrazolo[3,4-B]Pyridin-3-yl]-6,7-Dihydro-5H-Pyrrolo[2,3-D]Pyrimidine-5-Carboxamide]	B (Category B=SBP in SHRs 25-40 mmHg)
CC1(C(N)=O)C(=O)Nc2nc(-c3nn(CCC(F)(F)C(F)(F)F)c4cc(F)ccc34)nc(N)c21 (stereo not shown) [Example 192, 4-amino-2-[6-fluoro-1-(3,3,4,4,4-pentafluorobutyl)-1H-indazol-3-yl]-5-methyl-6-oxo-6,7-dihydro-5H-pyrrolo[2,3-d]pyrimidine-5-carboxamide]	B (Category B=SBP in SHRs 25-40 mmHg)
CC1(c2ccccc2)C(=O)Nc2nc(-c3nc(CCC(F)(F)C(F)(F)F)c4ccccn34)nc(N)c21 (single isomer, unassigned) [Example 190, 4-Amino-5-Methyl-2-[1-(3,3,4,4,4-Pentafluorobutyl)Imidazo[1,5-A]Pyridin-3-yl]-5-Phenyl-5,7-Dihydro-6H-Pyrrolo[2,3-D]Pyrimidin-6-One]	B (Category B=SBP in SHRs 25-40 mmHg)
CC1(NCC2CC2)C(=O)Nc2nc(-c3nn(CCC(F)(F)C(F)(F)F)c4ncccc34)nc(N)c21 (stereo not shown) [Example 174, 4-Amino-5-[(Cyclopropylmethyl)Amino]-5-Methyl-2-[1-(3,3,4,4,4-Pentafluorobutyl)-1H-Pyrazolo[3,4-B]Pyridin-3-yl]-5,7-Dihydro-6H-Pyrrolo[2,3-D]Pyrimidin-6-One]	B (Category B=SBP in SHRs 25-40 mmHg)
CC1(C(=O)NC2CC2)C(=O)Nc2nc(-c3nn(CCC(F)(F)C(F)(F)F)c4ncccc34)nc(N)c21 (stereo not shown) [Example 164, 4-Amino-N-Cyclopropyl-5-Methyl-6-Oxo-2-[1-(3,3,4,4,4-Pentafluorobutyl)-1H-Pyrazolo[3,4-B]Pyridin-3-yl]-6,7-Dihydro-5H-Pyrrolo[2,3-D]Pyrimidine-5-Carboxamide]	C (Category C=SBP in SHRs>40 mmHg)
CC1(C(=O)NC2CC2)C(=O)Nc2nc(-c3nc(CCC(F)(F)F)n4ncccc34)nc(N)c21 (stereo not shown) [Example 256, 4-amino-H-cyclopropyl-5-methyl-6-oxo-2-[7-(3,3,3-trifluoropropyl)imidazo[1,5-b]pyridazin-5-yl]-6,7-dihydro-5H-pyrrolo[2,3-d]pyrimidine-5-carboxamide]	B (Category B=SBP in SHRs 25-40 mmHg)
CC1(c2nncs2)C(=O)Nc2nc(-c3nn(CCC(F)(F)C(F)(F)F)c4ncccc34)nc(N)c21 (stereo not shown) [Example 168, 4-Amino-5-Methyl-2-[1-(3,3,4,4,4-Pentafluorobutyl)-1H-Pyrazolo[3,4-B]Pyridin-3-yl]-5-(1,3,4-Thiadiazol-2-yl)-5,7-Dihydro-6H-Pyrrolo[2,3-D]Pyrimidin-6-One]	A (Category A=SBP in SHRs<25 mmHg)
CC1(c2nnc(C(F)(F)F)o2)C(=O)Nc2nc(-c3nn(CCC(F)(F)C(F)(F)F)c4ccncc34)nc(N)c21 (stereo not shown) [Example 203, 4-amino-5-methyl-2-[1-(3,3,4,4,4-pentafluorobutyl)-1H-pyrazolo[3,4-d]pyridin-3-yl]-5-[5-(trifluoromethyl)-1,3,4-oxadiazol-2-yl)-5,7-dihydro-6H-pyrrolo[2,3-d]pyrimidin-6-one]	C (Category C=SBP in SHRs>40 mmHg)
CC1(C(=O)NC2CC2)C(=O)Nc2nc(-c3nn(CCC(F)(F)F)c4ncccc34)nc(N)c21 (stereo not shown) [Example 181, 4-Amino-N-Cyclopropyl-5-Methyl-6-Oxo-2-[1-(3,3,3-Trifluoropropyl)-1H-Pyrazolo[3,4-B]Pyridin-3-yl]-6,7-Dihydro-5H-Pyrrolo[2,3-D]Pyrimidine-5-Carboxamide]	B (Category B=SBP in SHRs 25-40 mmHg)

same assay, conditions: single oral dose 1 mpk P.O.

Structure (SMILES)	Maximum peak decrease of systolic blood pressure (SBP) in SHR, Category
CC1(C(N)=O)C(=O)Nc2nc(-c3nc(CCC(F)(F)C(F)(F)F)n4ncccc34)nc(N)c21 (stereo not shown) [Example 254, 4-amino-5-methyl-6-oxo-2-[7-(3,3,4,4,4-pentafluorobutyl)imidazo[1,5-b]pyridazin-5-yl]-6,7-dihydro-5H-pyrrolo[2,3-d]pyrimidine-5-carboxamide]	B (Category B=SBP in SHRs 25-40 mmHg)
CC1(C(N)=S)C(=O)Nc2nc(-c3nn(CCC(F)(F)C(F)(F)F)c4ncccc34)nc(N)c21 (stereo not shown) [Example 205, 4-amino-5-methyl-6-oxo-2-[1-(3,3,4,4,4-pentafluorobutyl)-1H-pyrazolo[3,4-6]pyridin-3-yl]-6,7-dihydro-5H-pyrrolo[2,3-d]pyrimidine-5-carbothioamide]	C (Category C=SBP in SHRs>40 mmHg)
CCC1(C(N)=O)C(=O)Nc2nc(-c3nn(CCC(F)(F)C(F)(F)F)c4ncccc34)nc(N)c21 (stereo not shown) [Example 241, 4-amino-5-ethyl-6-oxo-2-[1-(3,3,4,4,4-pentafluorobutyl)-1H-pyrazolo[3,4-b]pyridin-3-yl]-6,7-dihydro-5H-pyrrolo[2,3-d]pyrimidine-5-carboxamide]	B (Category B=SBP in SHRs 25-40 mmHg)
CC1(c2ncccn2)C(=O)Nc2nc(-c3nn(CCC(F)(F)C(F)(F)F)c4ncccc34)nc(N)c21 (single isomer, unassigned) [Example 170, 4-Amino-5-Methyl-2-[1-(3,3,4,4,4-Pentafluorobutyl)-1H-Pyrazolo[3,4-B]Pyridin-3-yl]-5-Pyrimidin-2-yl-5,7-Dihydro-6H-Pyrrolo[2,3-D]Pyrimidin-6-One]	C (Category C=SBP in SHRs>40 mmHg)
